Entries after “also recorded” stand apart in the source; their conditions may differ.
Assays:
−13CYP3A4/lacZ transgene [1] = assay: β-galactosidase activity in total liver lysates, ONPG assay, line 9/4; type: in vivo, mouse; settings: 100 mg/kg i.p. daily for 4 days, FIG. 3A
Method: (§1) Administration of xenobiotics to mice. 8-10 week old male and female mice hemizygous for the −CYP3A4/lacZ and −13CYP3A4/lacZ transgenes were used to test the ability of a range of xenobiotics and hormones to activate expression of transgene-derived β-galactosidase. […] The dose used for all reagents to test for induction of the transgene was 100 mg/kg body weight. Dose response studies were carried out in the range of 1-100 mg/kg with male hemizygous transgenic mice.
(§2) Analysis of transgene and mouse Cyp3a gene expression. β-galactosidase activity was visualised in slices and frozen sections of liver and other tissues by staining with X-gal (5-bromo-4-chloro-3-indolyl-β-D-galactopyranoside). Tissues were fixed in 0.25% glutaraldehyde, 0.1 M phosphate buffer pH7.3, 5 mM EGTA, 2 mM MgCl2: washed in 0.1 M phosphate buffer pH7.3, 0.01% sodium deoxycholate, 0.025% NP40, 2 mM MgCl2 and stained by incubation at 37° C. in wash solution supplemented with 1 mg/ml X-gal, 5 mM potassium ferricyanide, and 5 mM potassium ferrocyanide. The level of β-galactosidase activity was determined in whole liver homogenates [100 mg fresh tissue/ml 0.25M Tris-HCl (pH 7.3)] using the O-nitrophenyl-β-D-galactopyranoside (ONPG) assay according to standard techniques. After appropriate dilution the homogenate was incubated with β-galactosidase assay reagent (0.1 M sodium phosphate buffer (pH7.3)/1 mM MgCl2/50 mmol β-mercaptoethanol/0.88 mg/ml ONPG) at 37° C., quenched by the addition of 1 M Na2CO3 and the absorbance at 420 nm determined. The units of β-galactosidase activity are given as A420/mg liver/minute.

−13CYP3A4/lacZ transgene [2] = assay: Xenobiotic induction of transgene expression in line 15/10; type: in vivo, mouse; settings: data not shown
Method: as §1
Analysis of transgene and mouse Cyp3a gene expression. β-galactosidase activity was visualised in slices and frozen sections of liver and other tissues by staining with X-gal (5-bromo-4-chloro-3-indolyl-β-D-galactopyranoside). […] The level of β-galactosidase activity was determined in whole liver homogenates [100 mg fresh tissue/ml 0.25M Tris-HCl (pH 7.3)] using the O-nitrophenyl-β-D-galactopyranoside (ONPG) assay according to standard techniques. After appropriate dilution the homogenate was incubated with β-galactosidase assay reagent (0.1 M sodium phosphate buffer (pH7.3)/1 mM MgCl2/50 mmol β-mercaptoethanol/0.88 mg/ml ONPG) at 37° C., quenched by the addition of 1 M Na2CO3 and the absorbance at 420 nm determined. […]

−13CYP3A4/lacZ transgene [3] = system: −13CYP3A4/lacZ transgene
Method: as §1, §2

mouse Cyp3all gene = settings: in vivo, ip, 100 mg/kg
Method: as §1
Filters were stripped and reprobed with an 18S rRNA oligonucleotide to normalise loading.

Clc1ccccc1C(c1ccccc1)(c1ccccc1)n1ccnc1 [clotrimazole]
relative degree of induction of transgene, β-galactosidase activity in liver lysates (−13CYP3A4/lacZ transgene [1]): intermediate inducers

C[C@@H]1C[C@H]2[C@@H]3CCC4=CC(=O)C=C[C@]4(C)[C@@]3(F)[C@@H](O)C[C@]2(C)[C@@]1(O)C(=O)COP(=O)(O)O [dexamethasone, dexamethasone phosphate]
induction profile of transgene expression (−13CYP3A4/lacZ transgene [2]): most potent activator | thickness of zone of X-gal positive hepatocytes (−13CYP3A4/lacZ transgene [3]; line 9/4, 100 mg/kg, FIG. 4B): up to 10 cells | thickness of zone of hepatocytes expressing the transgene around the central vein (X-gal) (−13CYP3A4/lacZ transgene [3]; line 9/4, low doses, FIG. 4B): 1-2 cells

O=C1NC(=O)C(c2ccccc2)(c2ccccc2)N1 [phenyloin]
relative degree of induction of transgene, β-galactosidase activity in liver lysates (−13CYP3A4/lacZ transgene [1]): intermediate inducers

CC(=O)[C@H]1[C@H](C#N)C[C@H]2[C@@H]3CC=C4C[C@@H](O)CC[C@]4(C)[C@H]3CC[C@@]21C [pregnenolone 16α-carbonitrile]
relative degree of induction of transgene, β-galactosidase activity in liver lysates (−13CYP3A4/lacZ transgene [1]; 100 mg/kg): most potent xenobiotic activators; also recorded: most potent inducers | hepatic Cyp3all mRNA, females versus males (mouse Cyp3all gene): higher levels of Cyp3all mRNA were observed in females than males | hepatic transgene expression, X-gal staining of liver slices (cells containing β-galactosidase) (−13CYP3A4/lacZ transgene [3]; female mice line 9/4, 100 mg/kg i.p. daily for 4 days, compared with corn oil treated mice): increased zone of blue staining cells

CC(=O)[C@H]1CC[C@H]2[C@@H]3CC=C4C[C@@H](O)CC[C@]4(C)[C@H]3CC[C@]12C [pregnenolone]
relative degree of induction of transgene, β-galactosidase activity in liver lysates (−13CYP3A4/lacZ transgene [1]; 100 mg/kg): very weak inducers; also recorded: the induction was weak compared with xenobiotics
